# In US20250332173A1, “COMPOUNDS AND METHODS FOR MODULATING NUCLEIC ACID SPLICING” (REMIX THERAPEUTICS INC., priority 2021, published 2025):
# Where a name gives a salt, the structure may show the parent alone. Read-outs that look alike come from different tables or passages of the source.
# How the values were obtained:
# Type in all cases: cell-based, human
# HTT mRNA = test: RT-qPCR splicing assay, HTT canonical junction (CJ) and alternative junction (AJ) mRNA; conditions: Homo sapiens; for AC50: increase in HTT alternative junction (AJ) mRNA, read-out: HTT AJ AC50
# In short: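 Splicing switches were read by TaqMan RT-qPCR on lysates, quantifying exon-exon junctions of the canonical and alternative-exon isoforms. Lysates came from K562 (GAPDH/GUSB reference) or A673 (PPIA reference) cells exposed 24 h to compound in 11 threefold steps from 10 uM, with DMSO ≤0.25%.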
# Target C = test: HiBiT protein abundance assay, Target C (Promega Nano-Glo HiBiT Lytic Detection System, knock-in K562 cell line); conditions: Homo sapiens, K562, 24 h, HiBiT K562 cell line, 24 hours, top dose 10 μM; read-out: Effect on protein abundance, Target C (IC50 category)
# In short: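 Protein abundance was read by Nano-Glo HiBiT lytic luminescence after 24 h compound exposure (10-point, threefold series from 10 μM final) of HiBiT knock-in K562 cells. Parental K562 served as baseline; the 50%-abundance concentration was interpolated from a four-parameter logistic fit.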
# SMN2 mRNA = test: RT-qPCR splicing assay, SMN2 canonical junction (CJ) mRNA; conditions: Homo sapiens; Table 5 panel; canonical junction qPCR; compound concentration having 50% response in CJ decrease; read-out: SMN2 IC50 (decrease in CJ mRNA levels)
# In short: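 Exposure: 24 h, 37 °C, 11-point 3-fold dilutions from 10 uM final, DMSO at or below 0.25%, in A673 or K562 cells. Detection: cell-lysate RT-qPCR of canonical junction mRNA relative to GAPDH, GUSB or PPIA.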
# [1] = decrease in HTT canonical junction (CJ) mRNA, RT-qPCR, read-out: HTT CJ IC50
# [2] = Table 5 panel, canonical junction qPCR, compound concentration having 50% response in CJ decrease, read-out: HTT IC50 (decrease in CJ mRNA levels)
SMILES,IC50 (HTT mRNA; [1]),AC50 (HTT mRNA; RT-qPCR),IC50 (HTT mRNA; [2]),IC50 (Target C),IC50 (SMN2 mRNA)
"Cc1cn2nc(-c3ccc4c(=O)n(C5CCNCC5)ccc4c3)cc(-n3ccccc3=O)c2n1 [Compound 552, 6-[2-methyl-8-(2-oxo-1-pyridyl)imidazo[1,2-b]pyridazin-6-yl]-2-(4-piperidyl)isoquinolin-1-one]",> 10000 nM,> 10000 nM,> 10000 nM,> 10000 nM,> 10000 nM
Cc1cn2cc(-c3cc(F)c4c(=O)n(C5CCNCC5)cnc4c3)cc(C#N)c2n1 [Compound 588],1000 to 10000 nM,1000 to 10000 nM,1000 to 10000 nM,1000 to 10000 nM,< 100 nM
"COc1cccc(Oc2cc(-c3ccc4c(=O)n(C5CCNCC5)ccc4c3)nn3cc(C)nc23)c1 [Compound 547, 6-[8-(3-methoxyphenoxy)-2-methyl-imidazo[1,2-b]pyridazin-6-yl]-2-(4 piperidyl) isoquinolin-1-one]",< 100 nM,< 100 nM,< 100 nM,< 100 nM,< 100 nM
"Cc1cn2cc(-c3ccc4c(=O)n(C5CCNCC5)ccc4c3)cc(C#N)c2n1 [Compound 560, 2-methyl-6-[1-oxo-2-(piperidin-4-yl)isoquinolin-6-yl]imidazo[1,2-a]pyridine-8-carbonitrile]",1000 to 10000 nM,100 to 1000 nM,100 to 1000 nM,100 to 1000 nM,< 100 nM
"Cc1cn2nc(-c3ccc4c(=O)n(C5CCNCC5)ccc4c3)cc(Oc3ccccc3F)c2n1 [Compound 544, 6-[8-(2-fluorophenoxy)-2-methyl-imidazo[1,2-b]pyridazin-6-yl]-2-(4-piperidyl) isoquinolin-1-one; hydrochloride]",< 100 nM,< 100 nM,< 100 nM,< 100 nM,< 100 nM
Cc1cn2nc(-c3cc(O)c4c(=O)n(C5CCN(CCF)CC5)ncc4c3)cc(C)c2n1 [Compound 553],< 100 nM,< 100 nM,< 100 nM,100 to 1000 nM,< 100 nM
"Cc1cn2nc(-c3ccc4c(=O)n(C5CCNCC5)ccc4c3)cc(C(=O)O)c2n1 [Compound 516, 2-methyl-6-[1-oxo-2-(4-piperidyl)-6-isoquinolyl]imidazo[1,2-b]pyridazine-8-carboxylic acid]",1000 to 10000 nM,1000 to 10000 nM,1000 to 10000 nM,1000 to 10000 nM,1000 to 10000 nM
Cc1cn2nc(-c3cc(O)c4c(=O)n(C5CCN(C)CC5)ncc4c3)cc(C)c2n1 [Compound 543],100 to 1000 nM,< 100 nM,< 100 nM,100 to 1000 nM,< 100 nM
"Cc1cn2cc(-c3cc(F)c4c(=O)n([C@@H]5C[C@@H](C)N[C@@H](C)C5)ccc4c3)cc(F)c2n1 [Compound 642, 2-[(2S,6R)-2,6-dimethyl-4-piperidyl]-8-fluoro-6-(8-fluoro-2-methyl-imidazo[1,2-a]pyridin-6-yl)isoquinolin-1-one]",1000 to 10000 nM,100 to 1000 nM,100 to 1000 nM,1000 to 10000 nM,< 100 nM
COC(=O)Cc1cc(-c2ccc3c(=O)n(C4CCNCC4)ccc3c2)nn2cc(C)nc12 [Compound 527],100 to 1000 nM,100 to 1000 nM,100 to 1000 nM,100 to 1000 nM,< 100 nM
Cc1cn2cc(-c3cc(F)c4c(=O)n(C5CC(C)NC(C)C5)ccc4c3)cc(F)c2n1 (stereo not shown) [Compound 651],100 to 1000 nM,< 100 nM,< 100 nM,100 to 1000 nM,< 100 nM
